In ChEMBL document CHEMBL1137120, “Synthesis and biological evaluation of flavonoids as vasorelaxant agents” (2004):

Organism: Rattus norvegicus
Test: Tested for vasorelaxant activity in rat thoracic aorta rings against PE-induced contractions
Format: functional

Compared with `Cc1c(O)c(C)c2c(c1O)C(=O)C(O)C(c1ccc(O)cc1)O2` (centres undefined), `Cc1ccc(-c2cc(=O)c3c(O)cc(O)cc3o2)cc1` is higher in Maximal relaxation: 64.4% for the first, 77.2% for the second.

Compared with `COCOc1c(-c2ccc(O)c(O)c2)oc2cc(O)cc(O)c2c1=O`, `O=c1c(O)c(-c2ccc(O)c(O)c2)oc2cc(O)cc(O)c12` [QUERCETIN] is lower in Maximal relaxation: 71.6% for the first, 45.9% for the second.

Compared with `O=c1c(O[C@@H]2OC[C@@H](O)[C@@H](O)[C@H]2O)c(-c2ccc(O)c(O)c2)oc2cc(O)cc(O)c12`, `O=c1c(O[C@@H]2OC[C@@H](O)[C@H](O)[C@@H]2O)c(-c2ccc(O)c(O)c2)oc2cc(O)cc(O)c12` is lower in Maximal relaxation: 35.1% for the first, 24.7% for the second.

First: O=c1cc(-c2ccc3c(c2)OCO3)oc2cc(O)cc(O)c12
Second: O=c1cc(-c2ccc(O)c(O)c2)oc2cc(O)cc(O)c12 [LUTEOLIN]
The Maximal relaxation of the first is higher: 91.3% for the first, 70.2% for the second.

Going from `O=c1cc(-c2ccc(Cl)cc2)oc2cc(O)cc(O)c12` to `O=c1cc(-c2cccc(Br)c2)oc2cc(O)cc(O)c12`, the Maximal relaxation rises from 92.7% to 95%.

Going from `C[C@@H]1O[C@@H](OC[C@H]2O[C@@H](Oc3c(-c4ccc(O)c(O)c4)oc4cc(O)cc(O)c4c3=O)C(O)[C@@H](O)[C@@H]2O)[C@H](O)[C@H](O)[C@H]1O` (single isomer, unassigned) [RUTIN] to `O=c1c(O[C@@H]2O[C@H](CO)C(O)C(O)[C@H]2O)c(-c2ccc(O)c(O)c2)oc2cc(O)cc(O)c12` (single isomer, unassigned) [ISOQUERCETIN], the Maximal relaxation rises from 24.7% to 34%.

Going from `COc1cccc(-c2cc(=O)c3c(O)cc(O)cc3o2)c1` to `O=c1cc(-c2ccccc2)oc2cc(O[C@@H]3O[C@H](CO)[C@@H](O)C(O)[C@H]3O)c(O)c(O)c12` (single isomer, unassigned), the Maximal relaxation falls from 80.8% to 36.2%.
